Data: patent publication US20210085640A1, “ACYLATED CATECHIN POLYPHENOLS AND METHODS OF THEIR USE FOR THE TREATMENT OF CANCER” (Flagship Pioneering Innovations V, Inc., priority 2018, published 2021)

Experiments:
Type in all cases: cell-based
[1] = tested on: AGS stomach cancer cells; assay: Cancer cell survival (CellTiter-Glo), AGS
Outline: (§1)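 Cells were seeded at 4×10^3 cells/well and left overnight at 37 C, 5% CO2, then exposed in triplicate to nine compound concentrations for 72 h. Dosing solutions were made at 10× final (1 μM-10 mM fatty acids, 100 nM-1 mM other compounds). CellTiter-Glo luminescence, normalised to untreated and medium-only wells, gave IC50.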

[2] = tested on: T24 bladder cancer cells; assay: Cancer cell survival (CellTiter-Glo), T24; conditions: Homo sapiens
Outline: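 T24 cells seeded at 4×10^3 cells/well overnight, then exposed 72 h at 37 C, 5% CO2 to nine concentrations in triplicate. Survival measured by CellTiter-Glo luminescence relative to untreated and medium controls; IC50 derived.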

[3] = tested on: MCF7 breast cancer cells; assay: Cancer cell survival (CellTiter-Glo), MCF7; conditions: Homo sapiens, 72 h
Outline: as §1

[4] = tested on: HCT 116 colorectal cancer cells; assay: Cancer cell survival (CellTiter-Glo), HCT 116; conditions: Homo sapiens, HCT 116 cells, 72 h
Outline: as §1

[5] = tested on: PC-3 prostate cancer cells; assay: Cancer cell survival (CellTiter-Glo), PC-3; conditions: Homo sapiens, PC-3 cells, 72 h
Outline: as §1

[6] = tested on: Daudi lymphoma cancer cells; assay: Cancer cell survival (CellTiter-Glo), Daudi; conditions: Homo sapiens, 72 h
Outline: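 Daudi cells (4×10^3/well) were exposed for 72 h at 37 °C to nine concentrations of compound, added as 10× solutions spanning 1 μM–10 mM (fatty acids) or 100 nM–1 mM (others). CellTiter-Glo luminescence gave % survival versus untreated, medium-blank corrected; IC50 derived.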

[7] = tested on: A549 lung cancer cells; assay: Cancer cell survival (CellTiter-Glo), A549; conditions: Homo sapiens, 72 h
Outline: as §1

[8] = tested on: A-431 skin cancer cells; assay: Cancer cell survival (CellTiter-Glo), A-431; conditions: Homo sapiens, A-431 cells, 72 h
Outline: as §1

[9] = 101 nM, read-out: Cell survival at given concentration
[10] = 318 nM, read-out: Cell survival at given concentration
[11] = 1 μM, read-out: Cell survival at given concentration
[12] = 3 μM, read-out: Cell survival at given concentration
[13] = 10 μM, read-out: Cell survival at given concentration
[14] = 32 μM, read-out: Cell survival at given concentration
[15] = 100 μM, read-out: Cell survival at given concentration
[16] = 316 μM, read-out: Cell survival at given concentration
[17] = 1000 μM, read-out: Cell survival at given concentration

O=c1cc(-c2ccc(O)c(O)c2)oc2cc(O)cc(O)c12 [luteolin]
viability at 0.101 µM ([1]; 72 h, 101 nM, read-out: Cell survival at given concentration): 99% | viability at 0.318 µM ([1]; 72 h, 318 nM, read-out: Cell survival at given concentration): 100% | viability at 1 µM ([1]; 72 h, 1 μM, Table 10.1, read-out: Cell survival at given concentration): 103% | viability at 3 µM ([1]; 72 h, 3 μM, Table 10.1, read-out: Cell survival at given concentration): 106% | viability at 10 µM ([1]; 72 h, 10 μM, Table 10.1, read-out: Cell survival at given concentration): 106% | viability at 32 µM ([1]; 72 h, 32 μM, Table 10.1, read-out: Cell survival at given concentration): 77% | viability at 100 µM ([1]; 72 h, 100 μM, Table 10.1, read-out: Cell survival at given concentration): 29% | viability at 316 µM ([1]; 72 h, 316 μM, read-out: Cell survival at given concentration): 8% | viability at 1000 µM ([1]; 72 h, 1000 μM, read-out: Cell survival at given concentration): 3% | IC50 ([1]; Table 10.1): 68.2 µM | viability at 0.101 µM ([2]; T-24, 101 nM, 72 h, read-out: Cell survival at given concentration): 99% | viability at 0.318 µM ([2]; T-24, 318 nM, 72 h, read-out: Cell survival at given concentration): 102% | viability at 1 µM ([2]; T-24, 1 μM, 72 h, read-out: Cell survival at given concentration): 103% | viability at 3 µM ([2]; T-24, 3 μM, 72 h, read-out: Cell survival at given concentration): 94% | viability at 10 µM ([2]; T-24, 10 μM, 72 h, read-out: Cell survival at given concentration): 85% | viability at 32 µM ([2]; T-24, 32 μM, 72 h, read-out: Cell survival at given concentration): 35% | viability at 100 µM ([2]; T-24, 100 μM, 72 h, read-out: Cell survival at given concentration): 9% | viability at 316 µM ([2]; T-24, 316 μM, 72 h, read-out: Cell survival at given concentration): 8% | viability at 1000 µM ([2]; T-24, 1000 μM, 72 h, read-out: Cell survival at given concentration): 6% | IC50 ([2]; T-24, 72 h, Table 3.1, read-out: 1050): 22.8 µM | viability at 0.101 µM [3, 9]: 96% | viability at 0.318 µM [3, 10]: 99% | viability at 1 µM [3, 11]: 103% | viability at 3 µM [3, 12]: 104% | viability at 10 µM [3, 13]: 108% | viability at 32 µM [3, 14]: 60% | viability at 100 µM [3, 15]: 31% | viability at 316 µM [3, 16]: 26% | viability at 1000 µM [3, 17]: 24% | IC50 ([3]; Table 5.1): 36 µM | viability at 0.101 µM [4, 9]: 100% | viability at 0.318 µM [4, 10]: 98% | viability at 1 µM [4, 11]: 101% | viability at 3 µM [4, 12]: 97% | viability at 10 µM [4, 13]: 93% | viability at 32 µM [4, 14]: 29% | viability at 100 µM [4, 15]: 2% | viability at 316 µM [4, 16]: 6% | viability at 1000 µM [4, 17]: 1% | IC50 ([4]; Table 6.1): 23.8 µM | viability at 0.101 µM [5, 9]: 100% | viability at 0.318 µM [5, 10]: 99% | viability at 1 µM [5, 11]: 100% | viability at 3 µM [5, 12]: 102% | viability at 10 µM [5, 13]: 96% | viability at 32 µM [5, 14]: 74% | viability at 100 µM [5, 15]: 52% | viability at 316 µM [5, 16]: 23% | viability at 1000 µM [5, 17]: 23% | IC50 ([5]; Table 8.1): 93.5 µM | viability at 0.101 µM [6, 9]: 100% | viability at 0.318 µM [6, 10]: 102% | viability at 1 µM [6, 11]: 103% | viability at 3 µM [6, 12]: 106% | viability at 10 µM [6, 13]: 85% | viability at 32 µM [6, 14]: 33% | viability at 100 µM [6, 15]: 10% | viability at 316 µM [6, 16]: 6% | viability at 1000 µM [6, 17]: 16% | IC50 ([6]; Table 4.1): 21.6 µM | viability at 0.101 µM [7, 9]: 96% | viability at 0.318 µM [7, 10]: 98% | viability at 1 µM [7, 11]: 100% | viability at 3 µM [7, 12]: 100% | viability at 10 µM [7, 13]: 101% | viability at 32 µM [7, 14]: 84% | viability at 100 µM [7, 15]: 37% | viability at 316 µM [7, 16]: 13% | viability at 1000 µM [7, 17]: 10% | IC50 ([7]; Table 7.1): 74.2 µM | viability at 0.101 µM [8, 9]: 101% | viability at 0.318 µM [8, 10]: 99% | viability at 1 µM [8, 11]: 102% | viability at 3 µM [8, 12]: 101% | viability at 10 µM [8, 13]: 99% | viability at 32 µM [8, 14]: 61% | viability at 100 µM [8, 15]: 39% | viability at 316 µM [8, 16]: 20% | viability at 1000 µM [8, 17]: 4% | IC50 ([8]; Table 9.1): 71.8 µM
